{
  "source": "patent US6465677B1",
  "about": "“Method for the preparation of N-neohexyl-α-aspartyl-L-phenylalanine methyl ester from imidazolidin-4-one intermediates” (The NutraSweet Company, priority 1998, dated 2002)",
  "origin": "cited, not measured here",
  "settings": "on a weight basis",
  "data": [
    {"smiles": "COC(=O)[C@H](Cc1ccccc1)NC(=O)[C@H](CC(=O)O)NCCC(C)(C)C", "note": "[neotame, N-[N-(3,3-dimethylbutyl)-L-α-aspartyl]-L-phenylalanine 1-methyl ester]", "values": [
      {"measurement": "sweetness relative to sucrose", "value": "approximately 8,000 times as sweet as sucrose"}
    ]}
  ]
}
